This test has as its target EGFR (mouse) (UniProt P00533). The following applies: swiss 3t3 membrane.

pIC50: −log10 of the molar value.

`COc1ccc(OC)c2nc(Cl)c(-c3ccccc3)cc12` showed a pIC50 of less than 4.52.

On to `N#CC(C#N)=C(N)/C(C#N)=C/c1c[nH]c2ccccc12`, for which the pIC50 was less than 3.52.

Consider `N#C/C(=C\c1c[nH]c2ccccc12)C(=O)c1ccc(O)c(O)c1`, for which the negative-log IC50 (pIC50) is 4.52.

Values taken from the Kinase Knowledgebase extract (Sharma et al. 2016).
